SMILES strings stand for the structures.

The test system of this experiment is Eotaxin-3 release in human whole blood stimulated with IL-4. The experiment is described as follows: Human Whole Blood Eotaxin-3 Assay (IL-4 stimulated eotaxin-3 release). The experiment is classed as cell-based. As to conditions: IL-4 stimulation, 48 h, values given for compounds with >80% Emax, geometric mean. As for the experimental part: Human Whole Blood Eotaxin-3 Assay
This was a human whole blood assay using recombinant human Interleukin 4 to stimulate the blood and measuring the ability of the test compounds to inhibit eotaxin-3 release. The biological activities of the test compounds have been tested in human whole blood stimulated with IL-4 measuring Eotaxin-3 release. The test compounds were added to 384 well clear flat-bottom plate in a 4-fold serial dilution in triplicates using a liquid handler. Human whole blood stabilized in lithium-heparin tubes was added in a volume of 65 μL per well, resulting in a final DMSO concentration of 0.5%. The plate is incubated for 2 h at 37° C. under 5% CO2/95% air. Subsequently, 5 μL of recombinant human IL-4 (R&D Systems, cat #204-ILB) was added to the wells to a final concentration of […]. The plate was incubated for 48 h at 37° C. under 5% CO2/95% air. The plate was spun down for 10 minutes at 500×g and 20 μL supernatant was harvested and transferred to a 384 well v-bottom plate using a liquid handler and stored at −20° C. until further analysis. 10 μL supernatant was used to measure the level of Eotaxin-3 (CCL26) using Human Eotaxin-3 MSD kit from Mesocsale (Cat #K251UEK-4). The assay was performed according to the manufacture instructions.
The data from the human whole blood eotaxin-3 assay is shown in FIG. 2 for Examples 3u208, 3u246, 3u118, 3u119, 3u120, and 3u74 (where the effect in % is plotted against the test concentration in M on a log scale).
Consider `C[C@@H](c1cc2c(-n3cc(F)c4c(c3=O)CCN4)ccnc2n1C)N1CC=C(c2c(F)cc(C(=O)N3CCC(CN4CCN(Cc5ccc6c(c5)n(C)c(=O)n6C5CCC(=O)NC5=O)CC4)CC3)cc2F)CC1` (stereo partly drawn) [Example 3u83, 3-(5-((4-((1-(3,5-difluoro-4-(1-((S)-1-(4-(7-fluoro-4-oxo-1,2,3,4-tetrahydro-5H-pyrrolo[3,2-c]pyridin-5-yl)-1-methyl-1H-pyrrolo[2,3-b]pyridin-2-yl)ethyl)-1,2,3,6-tetrahydropyridin-4-yl)benzoyl)piperidin-4-yl)methyl)piperazin-1-yl)methyl)-3-methyl-2-oxo-2,3-dihydro-1H-benzo[d]-imidazol-1-yl)piperidine-2,6-dione], for which a half-maximal response (EC50) required 8 nM.

For `CNc1cc(=O)n(-c2ccnc3c2cc([C@H](C)N2CC=C(c4c(C)cc(C(=O)N5CCC(CN6CCN(Cc7ccc8c(c7)C7(CC7)C(=O)N8C7CCC(=O)NC7=O)C[C@@H]6C)CC5)cc4F)CC2)n3C)cc1OC` (stereo partly drawn) [Example 3u117, 3-(5′-(((S)-4-((1-(3-fluoro-4-(1-((S)-1-(4-(5-methoxy-4-(methylamino)-2-oxopyridin-1 (2H)-yl)-1-methyl-1H-pyrrolo[2,3-b]pyridin-2-yl)ethyl)-1,2,3,6-tetrahydropyridin-4-yl)-5-methylbenzoyl)piperidin-4-yl)methyl)-3-methylpiperazin-1-yl)methyl)-2′-oxospiro[cyclopropane-1,3′-indolin]-1′-yl)piperidine-2,6-dione], the 50% effective concentration (EC50) (usually the concentration needed to bring the measured effect to its halfway point) stood at 1210 nM. `CNc1ccn(-c2ccnc3c2cc([C@H](C)N2CC=C(c4c(C)cc(C(=O)N5CCC(CN6CCN(Cc7ccc8c(c7)n(C7CC7)c(=O)n8C7CCC(=O)NC7=O)C[C@@H]6C)CC5)cc4F)CC2)n3C)c(=O)c1OC` (stereo partly drawn) [Example 3u135, 3-(3-cyclopropyl-5-(((S)-4-((1-(3-fluoro-4-(1-((S)-1-(4-(3-methoxy-4-(methylamino)-2-oxopyridin-1 (2H)-yl)-1-methyl-1H-pyrrolo[2,3-b]pyridin-2-yl)ethyl)-1,2,3,6-tetrahydropyridin-4-yl)-5-methylbenzoyl)piperidin-4-yl)methyl)-3-methylpiperazin-1-yl)methyl)-2-oxo-2,3-dihydro-1H-benzo[d]imidazol-1-yl)piperidine-2,6-dione] came in with an EC50 of 185 nM. With `CNc1cc(=O)n(-c2ccnc3c2cc([C@H](C)N2CC=C(c4c(C)cc(C(=O)N5CCC(F)(CN6CCN(c7ccc8c(c7)C7(CC7)C(=O)N8C7CCC(=O)NC7=O)CC6)CC5)cc4F)CC2)n3C)cc1F` (stereo partly drawn) [Example 3u136, 3-(5′-(4-((4-fluoro-1-(3-fluoro-4-(1-((S)-1-(4-(5-fluoro-4-(methylamino)-2-oxopyridin-1 (2H)-yl)-1-methyl-1H-pyrrolo[2,3-b]pyridin-2-yl)ethyl)-1,2,3,6-tetrahydropyridin-4-yl)-5-methyl-benzoyl)piperidin-4-yl)methyl)piperazin-1-yl)-2′-oxospiro[cyclopropane-1,3′-indolin]-1′-yl)piperidine-2,6-dione] the figure was 16.4 nM; with `Cc1cc(C(=O)N2CCC(CN3CCN(c4cc5c(cc4F)n(C4CCC(=O)NC4=O)c(=O)n5C)CC3)CC2)cc(F)c1C1=CCN([C@@H](C)c2cc3c(-n4cc(F)c5c(c4=O)CCN5)ccnc3n2C)CC1` (stereo partly drawn) [Example 3u253, 3-(6-fluoro-5-(4-((1-(3-fluoro-4-(1-((S)-1-(4-(7-fluoro-4-oxo-1,2,3,4-tetrahydro-5H-pyrrolo[3,2-c]pyridin-5-yl)-1-methyl-1H-pyrrolo[2,3-b]pyridin-2-yl)ethyl)-1,2,3,6-tetrahydropyridin-4-yl)-5-methylbenzoyl)piperidin-4-yl)methyl)piperazin-1-yl)-3-methyl-2-oxo-2,3-dihydro-1H-benzo[d]imidazol-1-yl)piperidine-2,6-dione], 8.1 nM; with `CNc1ccn(-c2ccnc3c2cc([C@H](C)N2CC=C(c4c(C)cc(C(=O)N5CCC(CN6CCN(Cc7ccc8c(c7)C7(CCOCC7)C(=O)N8C7CCC(=O)NC7=O)CC6)CC5)cc4F)CC2)n3C)c(=O)c1` (stereo partly drawn) [Example 3u257, 3-(5-((4-((1-(3-fluoro-5-methyl-4-(1-((S)-1-(1-methyl-4-(4-(methylamino)-2-oxopyridin-1 (2H)-yl)-1H-pyrrolo[2,3-b]pyridin-2-yl)ethyl)-1,2,3,6-tetrahydropyridin-4-yl)benzoyl)-piperidin-4-yl)methyl)piperazin-1-yl)methyl)-2-oxo-2′,3′,5′,6′-tetrahydrospiro[indoline-3,4′-pyran]-1-yl)piperidine-2,6-dione], 24.2 nM. With `CNc1ccn(-c2ccnc3c2cc([C@H](C)N2CC=C(c4c(C)cc(C(=O)N5CCn6c(nnc6C6CCN(c7ccc8c(c7)n(C)c(=O)n8C7CCC(=O)NC7=O)CC6)C5)cc4F)CC2)n3C)c(=O)c1` (stereo partly drawn) [Example 3u260, 3-(5-(4-(7-(3-fluoro-5-methyl-4-(1-((S)-1-(1-methyl-4-(4-(methylamino)-2-oxopyridin-1 (2H)-yl)-1H-pyrrolo[2,3-b]pyridin-2-yl)ethyl)-1,2,3,6-tetrahydropyridin-4-yl)benzoyl)-5,6,7,8-tetrahydro-[1,2,4]triazolo[4,3-a]pyrazin-3-yl)piperidin-1-yl)-3-methyl-2-oxo-2,3-dihydro-1H-benzo[d]imidazol-1-yl)piperidine-2,6-dione] the figure was 11.2 nM; with `CNc1nc(=O)n(-c2ccnc3c2cc([C@H](C)N2CC=C(c4c(C)cc(C(=O)N5CCC(CN6CCN(c7cc8c(cc7F)n(C7CCC(=O)NC7=O)c(=O)n8C)CC6)CC5)cc4F)CC2)n3C)cc1F` (stereo partly drawn) [Example 3u268, 3-(6-fluoro-5-(4-((1-(3-fluoro-4-(1-((S)-1-(4-(5-fluoro-4-(methylamino)-2-oxopyrimidin-1 (2H)-yl)-1-methyl-1H-pyrrolo[2,3-b]pyridin-2-yl)ethyl)-1,2,3,6-tetrahydropyridin-4-yl)-5-methylbenzoyl)piperidin-4-yl)methyl)piperazin-1-yl)-3-methyl-2-oxo-2,3-dihydro-1H-benzo[d]-imidazol-1-yl)piperidine-2,6-dione], 5.6 nM; with `C[C@@H](c1cc2c(-n3cc(F)c4c(c3=O)CCN4)ccnc2n1C)N1CC=C(c2c(F)cc(C(=O)N3CCC(CN4CCN(c5cc6c(cc5F)n(C5CCC(=O)NC5=O)c(=O)n6C)CC4)CC3)cc2F)CC1` (stereo partly drawn) [Example 3u269, 3-(5-(4-((1-(3,5-difluoro-4-(1-((S)-1-(4-(7-fluoro-4-oxo-1,2,3,4-tetrahydro-5H-pyrrolo[3,2-c]pyridin-5-yl)-1-methyl-1H-pyrrolo[2,3-b]pyridin-2-yl)ethyl)-1,2,3,6-tetrahydropyridin-4-yl)benzoyl)piperidin-4-yl)methyl)piperazin-1-yl)-6-fluoro-3-methyl-2-oxo-2,3-dihydro-1H-benzo[d]-imidazol-1-yl)piperidine-2,6-dione], 96.3 nM. With `CNc1ccn(-c2ccnc3c2cc(CN2CCC(c4c(F)cc(C(=O)N5CCC(CN6CCN(c7cc8c(cc7F)n(C7CCC(=O)NC7=O)c(=O)n8C)CC6)CC5)cc4F)CC2)n3C)c(=O)c1` (stereo not shown) [Example 3u270, 3-(5-(4-((1-(3,5-difluoro-4-(1-((1-methyl-4-(4-(methylamino)-2-oxopyridin-1 (2H)-yl)-1H-pyrrolo[2,3-b]pyridin-2-yl)methyl)piperidin-4-yl)benzoyl)piperidin-4-yl)methyl)piperazin-1-yl)-6-fluoro-3-methyl-2-oxo-2,3-dihydro-1H-benzo[d]imidazol-1-yl)piperidine-2,6-dione] the figure was 26.8 nM.

The values are drawn from patent publication US20250320206A1, “STAT6 DEGRADERS” (Gilead Sciences, Inc., priority 2024, published 2025).
